# Laboratory results published in patent US20030212014A1 (priority 2000, published 2003).
# Tested on: HUVEC
# Assay: Apoptosis in HUVEC incubated with 2-bromopalmitate
# Assay type: cell-based, human
# Details: inhibition of free fatty acid oxidation
# Procedure: To test this notion, experiments were performed in HUVEC incubated with 2-bromopalmitate, an inhibitor of CPT1 which inhibits free fatty oxidation, or a higher concentration of free fatty acids (0.5 mM vs. 0.1 mM palmitate).
structure (smiles),measurement,value
CCCCCCCCCCCCCCC(Br)C(=O)O (stereo not shown) [2-bromopalmitate],apoptosis,promotes apoptosis
